According to US8871767B2, “2-arylimidazo[1,2-B]pyridazine, 2-phenylimidazo[1,2-A]pyridine, and 2-phenylimidazo[1,2-A]pyrazine derivatives” (Hengrui (USA) Ltd., priority 2010, dated 2014):
pIC50: −log10 of the molar value. Where two headings read alike, the source gives them in different places.

What was measured:
[1] = tested on: Hedgehog pathway activation on 10T1/2/Smo#3 cells (C3H10T1/2 cells transfected with human Smoothened receptor); experiment: Hedgehog pathway activation on 10T1/2/Smo#3 cells measured by ALP activity; format: cell-based
Procedure, shortened: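 Inhibition of alkaline phosphatase induction, read fluorometrically from 4-methylumbelliferyl phosphate conversion, gave IC50 values; CellTiter-Blue tracked viability in parallel. Cells were the human Smo-transfected 10T1/2/Smo#3 pool, stimulated by 10-20% hShh conditioned medium or the Smo agonist SAG (500 nM).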

[2] = tested on: Hedgehog pathway activation (GLi-luciferase reporter) in Shh Light II reporter cells; experiment: Hedgehog pathway activation on Shh Light II reporter cells measured by luciferase activity; format: cell-based
Procedure, shortened: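 Shh Light II reporter cells carrying a hedgehog-responsive GLi-luciferase reporter were stimulated either with 500 nM SAG, a direct Smoothened agonist, or with conditioned media containing human Sonic Hedgehog (hShh). Test compounds were evaluated for blocking this pathway activation, quantified by luciferase activity. Cell viability was monitored in parallel with the Celltiter-Blue® assay.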

[3] = Mus musculus, C3H 10T1/2, 10T1/2/Smo#3 cells, measured by ALP activity, read-out: ALP (IC50, inhibition of Hedgehog pathway activation)
[4] = Mus musculus, Shh Light II, hShh activation, read-out: Shh (IC50, inhibition of Hedgehog pathway activation)
[5] = Mus musculus, C3H 10T1/2, 10T1/2/Smo#3 cells, hShh activation, ALP activity, read-out: 10T1/2/Smo#3 ALP activity (hShh Activation)
[6] = Mus musculus, Shh Light II, SAG activation (500 nM SAG), read-out: Shh Light II luciferase activity (SAG activation)
[7] = Mus musculus, Shh Light II, hShh activation, read-out: Shh Light II luciferase activity (hShh activation)

Row | Compound | pIC50 [1, 3] | pIC50 [2, 4] | pIC50 [1, 5] | pIC50 [2, 6] | pIC50 [2, 7] | pIC50 ([1]; 10T1/2/Smo#3 cells, measured by ALP activity, read-out: ALP (IC50, inhibition of Hedgehog pathway activation)) | pIC50 ([2]; hShh activation, read-out: Shh (IC50, inhibition of Hedgehog pathway activation))
1 | CCC(C)(C)C(=O)Nc1cc(-c2cn3nc(-c4cccnc4C(F)(F)F)ccc3n2)c(F)cc1Cl [Example 659, N-(2-chloro-4-fluoro-5-(6-(2-(trifluoromethyl)pyridin-3-yl)imidazo[1,2-b]pyridazin-2-yl)phenyl)-2,2-dimethylbutanamide] | 7.12 | 7.66 | – | – | – | – | –
2 | Cc1c(NC(=O)C(C)(C)C)cccc1-c1cn2nc(-c3ccccc3F)ccc2n1 [Example 219, N-(3-(6-(2-fluorophenyl)imidazo[1,2-b]pyridazin-2-yl)-2-methylphenyl)pivalamide] | 6.02 | 5.90 | 5.52 to 6.52 | 4.52 to 5.52 | 5.52 to 6.52 | – | –
3 | CC(C)(C)C(=O)Nc1cc(-c2cn3nc(-c4cnccc4Cl)ccc3n2)ccc1C(F)(F)F [Example 386, N-(5-(6-(4-chloropyridin-3-yl)imidazo[1,2-b]pyridazin-2-yl)-2-(trifluoromethyl)phenyl)pivalamide] | 5.77 | 5.51 | – | – | – | – | –
4 | Cc1ccc(-c2cn3nc(Cl)ccc3n2)cc1NC(=O)C(C)(C)C [Example 118, N-(5-(6-chloroimidazo[1,2-b]pyridazin-2-yl)-2-methylphenyl)pivalamide] | 5.92 | 6.21 | – | – | – | – | –
5 | Cc1ccc(-c2cn3nc(-c4cc(C(N)=NO)ccc4Cl)ccc3n2)cc1NC(=O)C(C)(C)C [compound 569] | 7.07 | 7.49 | > 6.52 | 5.52 to 6.52 | > 6.52 | – | –
6 | Cc1ccc(-c2cn3nc(N4CCC(C(N)=NO)CC4)ccc3n2)cc1NC(=O)C(C)(C)C [compound 566] | 6.43 | 6.55 | – | – | – | – | –
7 | CCNC1CCN(c2ccc3nc(-c4ccc(C)c(NC(=O)C(C)(C)C)c4)cn3n2)C1 (centres unmarked) [Example 474, N-(5-(6-(3-(ethylamino)pyrrolidin-1-yl)imidazo[1,2-b]pyridazin-2-yl)-2-methylphenyl)pivalamide] | 7.47 | 7.51 | – | – | – | – | –
8 | COc1ccc2nc(-c3ccc(Cl)c(NC(=O)CC(C)C(F)(F)F)c3)cn2n1 (centres unmarked) [Example 120, N-(2-chloro-5-(6-methoxyimidazo[1,2-b]pyridazin-2-yl)phenyl)-4,4,4-trifluoro-3-methylbutanamide] | 5.20 | < 5.00 | – | – | – | – | –
9 | Cc1ccc(-c2cn3nc(C4=CCC(C)(C)CC4)ccc3n2)cc1NC(=O)C(C)(C)C [Example 444, N-(5-(6-(4,4-dimethylcyclohex-1-enyl)imidazo[1,2-b]pyridazin-2-yl)-2-methylphenyl)pivalamide] | 6.22 | 5.91 | – | – | – | – | –
10 | CCOC(=O)CCCCCOc1ccc(-c2ccc3nc(-c4ccc(C)c(NC(=O)C(C)(C)C)c4)cn3n2)c(C(F)(F)F)c1 [Example 412, ethyl 6-(4-(2-(4-methyl-3-pivalamidophenyl)imidazo[1,2-b]pyridazin-6-yl)-3-(trifluoromethyl)phenoxy)hexanoate] | 6.18 | 6.65 | 5.52 to 6.52 | 5.52 to 6.52 | > 6.52 | – | –
11 | Cc1ccc(-c2cn3nc(NCc4ccc(C(=O)NOC5CCCCO5)cc4)ccc3n2)cc1NC(=O)C(C)(C)C (centres unmarked) [compound 600] | < 5.00 | 6.89 | – | – | – | – | –
12 | COc1ccc2nc(-c3cc(NC(=O)CC(C)(C)C)ccc3Cl)cn2n1 [Example 117, N-(4-chloro-3-(6-methoxyimidazo[1,2-b]pyridazin-2-yl)phenyl)-3,3-dimethylbutanamide] | 5.17 | 5.55 | 4.52 to 5.52 | 4.52 to 5.52 | 4.52 to 5.52 | – | –
13 | CC(C)(C)C(=O)Nc1cc(-c2cn3nc(N4CCN(S(C)(=O)=O)CC4)ccc3n2)ccc1C(F)(F)F [Example 234, N-(5-(6-(4-(methylsulfonyl)piperazin-1-yl)imidazo[1,2-b]pyridazin-2-yl)-2-(trifluoromethyl)phenyl)pivalamide] | 6.64 | 6.26 | – | – | – | – | –
14 | CC(C)(C)C(=O)Nc1cc(-c2cn3nc(Cl)ccc3n2)ccc1C(F)(F)F [Example 126, N-(5-(6-chloroimidazo[1,2-b]pyridazin-2-yl)-2-(trifluoromethyl)phenyl)pivalamide] | 5.25 | 5.11 | – | – | – | – | –
15 | CCOc1ccc2nc(-c3ccc(C(F)(F)F)c(NC(=O)c4ccccc4)c3)cn2n1 [Example 191, N-(5-(6-ethoxyimidazo[1,2-b]pyridazin-2-yl)-2-(trifluoromethyl)phenyl)benzamide] | 5.80 | 6.24 | – | – | – | – | –
16 | CCOc1ccc2nc(-c3ccc(C(F)(F)F)c(NC(=O)C4CCCC4)c3)cn2n1 [Example 189, N-(5-(6-ethoxyimidazo[1,2-b]pyridazin-2-yl)-2-(trifluoromethyl)phenyl)cyclopentanecarboxamide] | 5.68 | 5.70 | – | – | – | – | –

Row | Compound | pIC50 [1, 3] | pIC50 [2, 4] | pIC50 [1, 5] | pIC50 [2, 6] | pIC50 [2, 7] | pIC50 ([1]; 10T1/2/Smo#3 cells, measured by ALP activity, read-out: ALP (IC50, inhibition of Hedgehog pathway activation)) | pIC50 ([2]; hShh activation, read-out: Shh (IC50, inhibition of Hedgehog pathway activation))
17 | CC(C)(C)C(=O)Nc1cc(-c2cn3nc(OCCO)ccc3n2)ccc1C(F)(F)F [Example 377, N-(5-(6-(2-hydroxyethoxy)imidazo[1,2-b]pyridazin-2-yl)-2-(trifluoromethyl)phenyl)pivalamide] | 6.15 | 6.18 | – | – | – | – | –
18 | Cc1ccc(-c2cn3nc(-c4ccccc4OC(F)(F)F)ccc3n2)cc1NC(=O)C(C)(C)C [Example 263, N-(2-methyl-5-(6-(2-(trifluoromethoxy)phenyl)imidazo[1,2-b]pyridazin-2-yl)phenyl)pivalamide] | 6.99 | 6.64 | – | – | – | – | –
19 | Cc1ccc(-c2cn3nc(Cl)ccc3n2)cc1NC(=O)C(C)(C)C(F)(F)F [Example 122, N-(5-(6-chloroimidazo[1,2-b]pyridazin-2-yl)-2-methylphenyl)-3,3,3-trifluoro-2,2-dimethylpropanamide] | 5.71 | 5.52 | – | – | – | – | –
20 | COc1ccc2nc(-c3ccc(C)c(NC(=O)c4cccc(C(F)(F)F)c4)c3)cn2n1 [Example 100, N-(5-(6-methoxyimidazo[1,2-b]pyridazin-2-yl)-2-methylphenyl)-3-(trifluoromethyl)benzamide] | 5.98 | 5.96 | – | – | – | – | –
21 | CNC1CCN(c2ccc3nc(-c4ccc(C)c(NC(=O)C(C)(C)C)c4)cn3n2)C1 (centres unmarked) [Example 360, N-(2-methyl-5-(6-(3-(methylamino)pyrrolidin-1-yl)imidazo[1,2-b]pyridazin-2-yl)phenyl)pivalamide] | – | – | – | – | – | 7.49 | 7.59
22 | COc1ccc2nc(-c3ccc(Cl)c(NC(=O)C4CCCC4)c3)cn2n1 [Example 112, N-(2-chloro-5-(6-methoxyimidazo[1,2-b]pyridazin-2-yl)phenyl)cyclopentanecarboxamide] | 5.02 | < 5.00 | – | – | – | – | –
23 | Cc1ccc(-c2cn3nc(N4CC[C@@H](N(C)C)C4)ccc3n2)cc1NC(=O)C(C)(C)C [Example 472, (R)-N-(5-(6-(3-(dimethylamino)pyrrolidin-1-yl)imidazo[1,2-b]pyridazin-2-yl)-2-methylphenyl)pivalamide] | 6.96 | 7.08 | – | – | – | – | –
24 | CN(C)C1CCN(c2ccc3nc(-c4ccc(C(F)(F)F)c(NC(=O)C(C)(C)C)c4)cn3n2)C1 (centres unmarked) [Example 350, N-(5-(6-(3-(dimethylamino)pyrrolidin-1-yl)imidazo[1,2-b]pyridazin-2-yl)-2-(trifluoromethyl)phenyl)pivalamide] | 7.55 | 7.19 | – | – | – | – | –
25 | CSc1ccc2nc(-c3ccc(C(F)(F)F)c(NC(=O)C(C)(C)C)c3)cn2n1 [Example 135, N-(5-(6-(methylthio)imidazo[1,2-b]pyridazin-2-yl)-2-(trifluoromethyl)phenyl)pivalamide] | 5.28 | 5.90 | – | – | – | – | –
26 | CC(=O)c1ccc(F)c(-c2ccc3nc(-c4ccc(C)c(NC(=O)C(C)(C)C)c4)cn3n2)c1 [compound 529] | 6.94 | 6.71 | > 6.52 | 5.52 to 6.52 | > 6.52 | – | –
27 | Cc1ccc(-c2cn3nc(-c4cccnc4C(F)(F)F)ccc3n2)cc1NC(=O)NC(C)(C)C [Example 646, 1-tert-butyl-3-(2-methyl-5-(6-(2-(trifluoromethyl)pyridin-3-yl)imidazo[1,2-b]pyridazin-2-yl)phenyl)urea] | 7.80 | 7.42 | > 6.52 | 5.52 to 6.52 | > 6.52 | – | –
28 | NS(=O)(=O)c1cc(-c2cn3nc(-c4cccnc4C(F)(F)F)ccc3n2)ccc1Cl [Example 697, 2-chloro-5-(6-(2-(trifluoromethyl)pyridin-3-yl)imidazo[1,2-b]pyridazin-2-yl)benzenesulfonamide] | < 5.00 | < 5.00 | – | – | – | – | –
29 | Cc1ccc(-c2cn3nc(NC(=O)c4cccc(Br)c4)ccc3n2)cc1NC(=O)C(C)(C)C [compound 594] | 7.52 | 7.70 | – | – | – | – | –
30 | Cc1ccc(-c2cn3nc(-c4cc(O)ccc4C(F)(F)F)ccc3n2)cc1NC(=O)C(C)(C)C [Example 399, N-(5-(6-(5-hydroxy-2-(trifluoromethyl)phenyl)imidazo[1,2-b]pyridazin-2-yl)-2-methylphenyl)pivalamide] | 6.76 | 6.98 | > 6.52 | > 6.52 | > 6.52 | – | –
31 | CC(C)(C)C(=O)Nc1cc(-c2cn3nc(N4CCN(C(=N)N)CC4)ccc3n2)ccc1C(F)(F)F [compound 570] | 6.14 | 6.62 | – | – | – | – | –
